Laboratory results reported in US11725011B2, “Bicyclic urea kinase inhibitors and uses thereof” (The Broad Institute, Inc., priority 2016, dated 2023).

How the values were obtained:
Conditions in all cases: 1 uM
[1] = molecular target: PKNB (M. tuberculosis) (Mycobacterium tuberculosis (strain ATCC 25618 / H37Rv), UniProt P9WI81)
[2] = molecular target: GRK1 (Homo sapiens (Human), UniProt Q15835); assay: KINOMEscan; type: binding
[3] = molecular target: MARK2 (Homo sapiens (Human), UniProt Q7KZI7); assay: KINOMEscan; type: binding
[4] = tested on: FLT3 (ITD); assay: KINOMEscan; type: binding
[5] = molecular target: MEK4 (Homo sapiens (Human), UniProt P45985); assay: KINOMEscan; type: binding
[6] = molecular target: EGFR (L858R) (Homo sapiens (Human), UniProt P00533, L858R); assay: KINOMEscan; type: binding
[7] = molecular target: TYK2 (JH2domain-pseudokinase) (Homo sapiens (Human), UniProt P29597); assay: KINOMEscan; type: binding
[8] = molecular target: LYN (Homo sapiens (Human), UniProt P07948); assay: KINOMEscan; type: binding
[9] = molecular target: MLCK (Homo sapiens (Human), UniProt Q32MK0); assay: KINOMEscan; type: binding
[10] = molecular target: ULK2 (Homo sapiens (Human), UniProt Q8IYT8); assay: KINOMEscan; type: binding
[11] = molecular target: DAPK3 (Homo sapiens (Human), UniProt O43293); assay: KINOMEscan; type: binding
[12] = molecular target: PRKG2 (Homo sapiens (Human), UniProt Q13237); assay: KINOMEscan; type: binding
[13] = molecular target: FLT3 (N841I) (Homo sapiens (Human), UniProt P36888, N841I); assay: KINOMEscan; type: binding
[14] = molecular target: EPHB1 (Homo sapiens (Human), UniProt P54762); assay: KINOMEscan; type: binding
[15] = molecular target: JAK1 (JH1domain-catalytic) (Homo sapiens (Human), UniProt P23458); assay: KINOMEscan; type: binding
[16] = molecular target: MKNK2 (Homo sapiens (Human), UniProt Q9HBH9); assay: KINOMEscan; type: binding
[17] = molecular target: ERBB4 (Homo sapiens (Human), UniProt Q15303); assay: KINOMEscan; type: binding
[18] = molecular target: LATS1 (Homo sapiens (Human), UniProt O95835); assay: KINOMEscan; type: binding
[19] = molecular target: DRAK2 (Homo sapiens (Human), UniProt O94768); assay: KINOMEscan; type: binding
[20] = molecular target: RIOK2 (Homo sapiens (Human), UniProt Q9BVS4); assay: KINOMEscan; type: binding
[21] = molecular target: ACVR1 (Homo sapiens (Human), UniProt Q04771); assay: KINOMEscan; type: binding
[22] = molecular target: PAK7 (Homo sapiens (Human), UniProt Q9P286); assay: KINOMEscan; type: binding
[23] = molecular target: ABL1 (T315I)-phosphorylated (Homo sapiens (Human), UniProt P00519, T315I); assay: KINOMEscan; type: binding
[24] = molecular target: WEE1 (Homo sapiens (Human), UniProt P30291); assay: KINOMEscan; type: binding
[25] = molecular target: TSSK1B (Homo sapiens (Human), UniProt Q9BXA7); assay: KINOMEscan; type: binding
[26] = molecular target: ABL1 (F317I)-phosphorylated (Homo sapiens (Human), UniProt P00519, F317I); assay: KINOMEscan; type: binding
[27] = molecular target: RSK2 (Kin.Dom.2-C-terminal) (Homo sapiens (Human), UniProt P51812); assay: KINOMEscan; type: binding
[28] = molecular target: CSNK1A1L (Homo sapiens (Human), UniProt Q8N752); assay: KINOMEscan; type: binding
[29] = molecular target: CDK9 (Homo sapiens (Human), UniProt P50750); assay: KINOMEscan; type: binding
[30] = molecular target: EGFR (G719C) (Homo sapiens (Human), UniProt P00533, G719C); assay: KINOMEscan; type: binding
[31] = molecular target: EGFR (Homo sapiens (Human), UniProt P00533); assay: KINOMEscan; type: binding
[32] = molecular target: CLK3 (Homo sapiens (Human), UniProt P49761); assay: KINOMEscan; type: binding
[33] = molecular target: ABL1 (F317L)-nonphosphorylated (Homo sapiens (Human), UniProt P00519, F317L); assay: KINOMEscan; type: binding
[34] = molecular target: CAMK4 (Homo sapiens (Human), UniProt Q16566); assay: KINOMEscan; type: binding
[35] = molecular target: IKK-epsilon (Homo sapiens (Human), UniProt Q14164); assay: KINOMEscan; type: binding
[36] = molecular target: FLT3 (D835H) (Homo sapiens (Human), UniProt P36888, D835H); assay: KINOMEscan; type: binding
[37] = molecular target: FER (Homo sapiens (Human), UniProt P16591); assay: KINOMEscan; type: binding
[38] = molecular target: KIT (V559D, T670I) (Homo sapiens (Human), UniProt P10721, T670I/V559D); assay: KINOMEscan; type: binding
[39] = molecular target: HASPIN (Homo sapiens (Human), UniProt Q8TF76); assay: KINOMEscan; type: binding
[40] = molecular target: ASK1 (Homo sapiens (Human), UniProt Q99683); assay: KINOMEscan; type: binding

Chain of CLK3 (P49761 whole entry): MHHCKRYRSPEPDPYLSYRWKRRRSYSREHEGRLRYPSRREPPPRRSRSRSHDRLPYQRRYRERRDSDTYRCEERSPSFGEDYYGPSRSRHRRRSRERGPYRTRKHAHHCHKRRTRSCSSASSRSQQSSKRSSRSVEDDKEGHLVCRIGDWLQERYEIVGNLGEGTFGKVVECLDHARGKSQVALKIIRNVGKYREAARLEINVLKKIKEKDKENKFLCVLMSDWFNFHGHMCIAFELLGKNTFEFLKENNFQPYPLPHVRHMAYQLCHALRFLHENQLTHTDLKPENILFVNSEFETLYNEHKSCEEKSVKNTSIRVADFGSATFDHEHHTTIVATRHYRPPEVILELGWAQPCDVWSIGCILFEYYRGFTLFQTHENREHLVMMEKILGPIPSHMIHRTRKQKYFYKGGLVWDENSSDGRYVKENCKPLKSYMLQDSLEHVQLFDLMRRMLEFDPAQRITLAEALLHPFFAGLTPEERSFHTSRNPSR
Chain of MKNK2 (Q9HBH9 whole entry): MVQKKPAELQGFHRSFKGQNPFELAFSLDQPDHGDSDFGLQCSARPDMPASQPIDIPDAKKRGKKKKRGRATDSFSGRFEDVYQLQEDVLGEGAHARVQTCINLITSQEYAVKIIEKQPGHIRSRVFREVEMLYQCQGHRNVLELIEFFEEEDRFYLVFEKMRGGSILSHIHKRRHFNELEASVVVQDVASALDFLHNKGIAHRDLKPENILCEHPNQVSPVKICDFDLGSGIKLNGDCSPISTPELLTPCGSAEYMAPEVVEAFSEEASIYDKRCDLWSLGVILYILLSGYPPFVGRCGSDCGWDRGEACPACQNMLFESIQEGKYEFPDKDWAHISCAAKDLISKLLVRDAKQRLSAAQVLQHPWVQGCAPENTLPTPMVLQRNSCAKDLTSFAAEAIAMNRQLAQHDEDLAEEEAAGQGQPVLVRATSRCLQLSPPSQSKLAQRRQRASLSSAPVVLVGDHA
Chain of WEE1 (P30291 whole entry): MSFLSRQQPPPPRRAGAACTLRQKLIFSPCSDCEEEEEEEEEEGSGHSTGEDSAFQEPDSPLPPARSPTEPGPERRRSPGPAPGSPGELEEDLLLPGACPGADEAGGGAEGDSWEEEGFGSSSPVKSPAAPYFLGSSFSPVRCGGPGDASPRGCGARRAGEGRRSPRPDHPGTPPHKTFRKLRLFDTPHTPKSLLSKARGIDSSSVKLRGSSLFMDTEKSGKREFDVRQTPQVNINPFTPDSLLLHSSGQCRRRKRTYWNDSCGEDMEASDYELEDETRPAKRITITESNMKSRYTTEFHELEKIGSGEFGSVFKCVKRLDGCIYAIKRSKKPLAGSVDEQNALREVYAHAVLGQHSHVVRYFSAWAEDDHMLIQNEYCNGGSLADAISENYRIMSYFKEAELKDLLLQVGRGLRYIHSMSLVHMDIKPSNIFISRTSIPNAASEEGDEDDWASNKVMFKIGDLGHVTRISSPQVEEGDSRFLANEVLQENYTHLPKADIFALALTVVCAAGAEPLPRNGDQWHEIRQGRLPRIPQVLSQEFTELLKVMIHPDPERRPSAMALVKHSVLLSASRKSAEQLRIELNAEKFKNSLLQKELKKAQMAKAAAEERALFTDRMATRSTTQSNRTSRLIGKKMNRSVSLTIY
Chain of JAK1 (JH1domain-catalytic) (P23458 875-1153): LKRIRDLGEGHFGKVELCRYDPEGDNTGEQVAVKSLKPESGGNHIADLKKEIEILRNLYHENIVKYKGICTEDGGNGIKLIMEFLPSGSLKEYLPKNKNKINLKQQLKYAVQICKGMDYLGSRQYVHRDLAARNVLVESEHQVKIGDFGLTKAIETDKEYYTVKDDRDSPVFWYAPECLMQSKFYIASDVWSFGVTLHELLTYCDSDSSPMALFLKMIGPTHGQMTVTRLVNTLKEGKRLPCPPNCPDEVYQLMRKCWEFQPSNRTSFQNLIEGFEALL
Chain of PAK7 (Q9P286 whole entry): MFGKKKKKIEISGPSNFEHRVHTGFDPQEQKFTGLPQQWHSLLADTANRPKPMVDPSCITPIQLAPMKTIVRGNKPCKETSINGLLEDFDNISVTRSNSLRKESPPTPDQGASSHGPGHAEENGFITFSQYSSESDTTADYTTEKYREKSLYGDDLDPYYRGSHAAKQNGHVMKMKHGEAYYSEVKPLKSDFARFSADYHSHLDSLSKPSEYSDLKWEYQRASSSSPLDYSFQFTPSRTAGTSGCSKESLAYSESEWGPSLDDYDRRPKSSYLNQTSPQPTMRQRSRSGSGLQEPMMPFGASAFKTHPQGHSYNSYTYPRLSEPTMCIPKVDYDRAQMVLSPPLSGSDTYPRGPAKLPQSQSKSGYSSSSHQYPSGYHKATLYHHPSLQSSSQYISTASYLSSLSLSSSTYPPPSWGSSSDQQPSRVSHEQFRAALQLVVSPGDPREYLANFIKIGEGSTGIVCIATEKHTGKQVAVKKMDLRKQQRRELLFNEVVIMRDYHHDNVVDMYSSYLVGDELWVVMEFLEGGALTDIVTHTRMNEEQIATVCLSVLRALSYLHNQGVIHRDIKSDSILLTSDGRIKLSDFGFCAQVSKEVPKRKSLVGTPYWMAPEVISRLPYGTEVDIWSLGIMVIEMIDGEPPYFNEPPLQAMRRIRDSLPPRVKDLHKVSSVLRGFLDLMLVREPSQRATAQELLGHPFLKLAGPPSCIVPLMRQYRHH
Chain of DRAK2 (O94768 whole entry): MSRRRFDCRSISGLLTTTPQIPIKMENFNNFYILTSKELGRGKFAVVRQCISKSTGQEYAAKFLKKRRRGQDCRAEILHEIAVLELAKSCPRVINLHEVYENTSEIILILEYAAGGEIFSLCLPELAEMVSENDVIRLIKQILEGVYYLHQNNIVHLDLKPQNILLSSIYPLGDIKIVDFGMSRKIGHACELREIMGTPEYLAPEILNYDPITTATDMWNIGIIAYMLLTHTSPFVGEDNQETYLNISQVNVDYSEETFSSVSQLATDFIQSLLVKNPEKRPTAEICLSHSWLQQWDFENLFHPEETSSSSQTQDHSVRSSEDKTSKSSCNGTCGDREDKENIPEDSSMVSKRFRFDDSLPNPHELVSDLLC
Chain of MARK2 (Q7KZI7 whole entry): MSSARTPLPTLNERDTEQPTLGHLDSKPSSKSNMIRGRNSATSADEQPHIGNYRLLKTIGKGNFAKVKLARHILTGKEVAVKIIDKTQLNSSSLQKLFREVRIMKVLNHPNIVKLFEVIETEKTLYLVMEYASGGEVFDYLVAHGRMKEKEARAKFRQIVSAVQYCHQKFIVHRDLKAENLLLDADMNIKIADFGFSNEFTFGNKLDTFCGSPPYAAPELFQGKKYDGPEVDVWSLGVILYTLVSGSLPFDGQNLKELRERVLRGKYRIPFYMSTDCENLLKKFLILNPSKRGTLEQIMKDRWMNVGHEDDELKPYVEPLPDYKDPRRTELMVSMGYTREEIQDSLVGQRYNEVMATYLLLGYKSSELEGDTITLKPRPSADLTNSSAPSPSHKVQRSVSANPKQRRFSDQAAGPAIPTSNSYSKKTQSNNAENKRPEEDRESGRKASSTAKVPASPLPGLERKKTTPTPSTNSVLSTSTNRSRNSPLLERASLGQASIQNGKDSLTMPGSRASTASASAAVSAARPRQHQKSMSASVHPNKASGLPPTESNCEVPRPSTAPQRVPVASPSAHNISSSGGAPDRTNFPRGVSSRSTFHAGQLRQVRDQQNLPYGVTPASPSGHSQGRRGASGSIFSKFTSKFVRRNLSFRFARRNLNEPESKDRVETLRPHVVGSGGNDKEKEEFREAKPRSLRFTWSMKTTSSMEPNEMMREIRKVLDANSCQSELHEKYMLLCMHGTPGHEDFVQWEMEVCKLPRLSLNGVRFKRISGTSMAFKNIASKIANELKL
Chain of TSSK1B (Q9BXA7 whole entry): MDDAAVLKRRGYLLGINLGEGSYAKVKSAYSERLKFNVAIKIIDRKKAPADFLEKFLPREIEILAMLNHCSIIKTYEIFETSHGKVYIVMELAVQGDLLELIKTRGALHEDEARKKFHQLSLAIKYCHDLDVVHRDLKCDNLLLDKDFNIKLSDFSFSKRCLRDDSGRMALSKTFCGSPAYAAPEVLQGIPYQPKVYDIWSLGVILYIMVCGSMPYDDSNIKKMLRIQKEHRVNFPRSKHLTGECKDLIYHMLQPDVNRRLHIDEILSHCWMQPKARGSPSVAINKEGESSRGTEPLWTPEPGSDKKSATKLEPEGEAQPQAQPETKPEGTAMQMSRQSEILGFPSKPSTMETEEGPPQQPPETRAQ
Chain of PRKG2 (Q13237 whole entry): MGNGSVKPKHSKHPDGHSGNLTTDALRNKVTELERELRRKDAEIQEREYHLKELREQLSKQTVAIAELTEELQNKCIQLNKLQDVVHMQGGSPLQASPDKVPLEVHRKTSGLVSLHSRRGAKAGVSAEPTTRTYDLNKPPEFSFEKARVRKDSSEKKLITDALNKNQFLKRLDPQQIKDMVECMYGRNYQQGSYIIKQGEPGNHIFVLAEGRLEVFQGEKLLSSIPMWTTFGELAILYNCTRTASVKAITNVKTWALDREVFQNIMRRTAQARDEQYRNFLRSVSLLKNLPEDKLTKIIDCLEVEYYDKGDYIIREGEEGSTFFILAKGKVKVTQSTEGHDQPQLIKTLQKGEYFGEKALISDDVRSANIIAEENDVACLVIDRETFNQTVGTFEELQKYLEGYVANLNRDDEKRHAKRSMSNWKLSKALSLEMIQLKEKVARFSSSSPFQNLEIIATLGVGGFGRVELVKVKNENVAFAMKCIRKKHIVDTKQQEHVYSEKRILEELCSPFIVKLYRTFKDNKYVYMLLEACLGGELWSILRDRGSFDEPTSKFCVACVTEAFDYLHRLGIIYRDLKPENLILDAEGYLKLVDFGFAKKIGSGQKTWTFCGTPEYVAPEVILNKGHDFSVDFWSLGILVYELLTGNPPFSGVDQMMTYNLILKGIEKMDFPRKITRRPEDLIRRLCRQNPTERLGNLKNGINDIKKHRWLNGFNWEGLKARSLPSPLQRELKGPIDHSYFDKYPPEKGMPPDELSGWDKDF

SMILES: COc1ccc(N2C(=O)N(c3c(C)cccc3C)Cc3cnc(Nc4ccc(N5CCN(C)CC5)cc4)nc32)c(OC)c1 [HG-11-136-01]
- KINOMEscan PKNB (M. tuberculosis) [1]: 6.6
- KINOMEscan GRK1 [2]: 77
- KINOMEscan MARK2 [3]: 3.7
- KINOMEscan FLT3 (ITD) [4]: 57
- KINOMEscan MEK4 [5]: 48
- KINOMEscan EGFR (L858R) [6]: 0.1
- KINOMEscan TYK2 (JH2domain-pseudokinase) [7]: 1.2
- KINOMEscan LYN [8]: 0
- KINOMEscan MLCK [9]: 100
- KINOMEscan ULK2 [10]: 2.2
- KINOMEscan DAPK3 [11]: 63
- KINOMEscan PRKG2 [12]: 92
- KINOMEscan FLT3 (N841I) [13]: 11
- KINOMEscan EPHB1 [14]: 0.3
- KINOMEscan JAK1 (JH1domain-catalytic) [15]: 57
- KINOMEscan MKNK2 [16]: 99
- KINOMEscan ERBB4 [17]: 0.2
- KINOMEscan LATS1 [18]: 100
- KINOMEscan DRAK2 [19]: 100
- KINOMEscan RIOK2 [20]: 87
- KINOMEscan ACVR1 [21]: 2.8
- KINOMEscan PAK7 [22]: 1.3
- KINOMEscan ABL1 (T315I)-phosphorylated [23]: 1.2
- KINOMEscan WEE1 [24]: 69
- KINOMEscan TSSK1B [25]: 50
- KINOMEscan ABL1 (F317I)-phosphorylated [26]: 1.3
- KINOMEscan RSK2 (Kin.Dom.2-C-terminal) [27]: 51
- KINOMEscan CSNK1A1L [28]: 97
- KINOMEscan CDK9 [29]: 91
- KINOMEscan EGFR (G719C) [30]: 0.1
- KINOMEscan EGFR [31]: 0.7
- KINOMEscan CLK3 [32]: 78
- KINOMEscan ABL1 (F317L)-nonphosphorylated [33]: 0
- KINOMEscan CAMK4 [34]: 100
- KINOMEscan IKK-epsilon [35]: 47
- KINOMEscan FLT3 (D835H) [36]: 16
- KINOMEscan FER [37]: 0.1
- KINOMEscan KIT (V559D, T670I) [38]: 55
- KINOMEscan HASPIN [39]: 92
- KINOMEscan ASK1 [40]: 100
